In patent US9255088B2, “Premature-termination-codons readthrough compounds” (The Regents of the University of California, priority 2010, dated 2016):
“Also recorded” adds a separate entry of the source.

Experiments:
[1] = test system: ATMs1981 autophosphorylation in AT153LA cells (TGA); test: Flow cytometry ATMs1981 autophosphorylation (FC-ATM) in AT153LA cells; format: cell-based, human; as to FCATMs1981: key: the positive results on various assays are also summarized and labeled as '+'
Experimental: FC-SMC1 assay was performed as recently described (Nahas et al., 2009). FC-ATM-Ser1981 assay was based on Honda's assay (Honda et al., 2009, Leukemia. 23:409-414) with modifications. In brief, cells were resuspended in PBS and radiated for 10 Gy. After 1 h, the cells were fixed and permeabilized using the FIX & PERM cell permeabilization kit (Invitrogen). The cells were then incubated with 1 μl of mouse ATM-Ser1981 antibody (Cell Signaling Technology) for 2 h at room temperature. Cells were washed and resuspended in 100 μl PBS with Alexa Fluor 488 anti-mouse IgG (Invitrogen) for 45 min. Cells were next washed and resuspended in PBS with 0.2% paraformaldehyde and analyzed using a FACSCalibur (BD).
Studies on readthrough activity of RTC#13 derivatives as measured by FC-ATMS 1981 were performed according to the procedures provided in Example 1.
These two series, 7 and 9, were tested for readthrough activity using an assay in which the ATM protein kinase activity was measured using a flow cytometry-based ATMs1981 autophosphorylation assay (FC-ATM) (Nahas, S. A; et al., Clin. Chem. 2009, 55, 463-72). […] An increased Delta-FI indicates the restoration of ATM kinase activity by a compound.
(§1) These two series, 13 and 15, were again tested for readthrough activity using the assay in which the ATM protein kinase activity was measured by functional flow cytometry (FC-ATM) (Table 4 and FIG. 12). A second assay, irradiation (1R)-induced ATMs1981 nuclear foci formation (IRIF-ATM), was also used to confirm the readthrough activity of these compounds (Table 4 and FIG. 13). Table 3 summarizes the data for the analogues 13 and 15 (at 30 μM), in which the groups R, R′, and X were varied. More detailed data are reported in FIG. 5 (for FC-ATM assay), and in FIG. 6 (for IRIF-ATM assay). […] Thus, the pyrimidinedione unit serves as a good structural replacement for the 2-imino and 2-thioxo thiazolidin-4-one units.

[2] = test system: ATM-Ser1981 foci in AT153LA cells (TGA A); test: Irradiation-induced ATM-Ser1981 foci (IRIF) in AT153LA cells; format: cell-based, human; as to IRIF (ATMs1981): key: the positive results on various assays are also summarized and labeled as '+'
Experimental: To evaluate the function of RTC-induced ATM protein, we measured irradiation-induced foci (IRIF) formation of ATM-Ser1981 in the same ATI53LA cells (TGA A). […] The maximum IRIF induction achieved in A-T cells by 10 μM RTC#13 was ˜40% of wild-type level. As a positive readthrough control, 144 μM of G418 (100 μg/ml) was used to treat cells. Our previous studies had shown that, at this concentration, […] induced a maximum level of ATMs1981 IRIF (Lai et al., 2004).
Immunostaining of nuclear foci of ATM-Ser1981 was performed as previously reported (Du et al., 2007). In brief, after being treated with compound for 4 d, cells were irradiated with 2 Gy and incubated at 37° C. for 30 min. The cells were dropped onto coverslips, fixed with 4% paraformaldehyde, and permeabilized. Coverslips were blocked for 1 h and incubated with mouse anti-ATM pSer1981 for 1 h (1:500; Rockland Immunochemicals, Inc). After a second blocking, cells were stained with FITC-conjugated anti-mouse IgG (1:150; Jackson ImmunoResearch Laboratories) for 1 h and mounted onto slides.
Studies on IR-induced ATMs1981 foci formation by RTC#13 and derivatives 13a, 13b, 13d, 13e, 13f, 13g, 13h, 13i, 13j, and 13k in A-T153LA cells (TGA) were performed according to the procedures provided in Example 1.
as §1

[3] = test system: dystrophin in mdx myotubes (TAA); test: Dystrophin expression in mdx myotubes; format: cell-based, mouse; settings: FIG. 21
Experimental: To investigate the ability of RTC#13 and #14 to readthrough a PTC mutation in genes other than ATM, we used mdx myotubes. The mdx mouse has been widely used as a model for Duchenne muscular dystrophy. It carries a C to T transition in exon 23 of the dystrophin gene that creates a premature stop codon (TAA), resulting in an absence of dystrophin protein (Sicinski, et al., 1989, Science. 244:1578-1580). […] Muscle progenitor cells isolated from mdx mice were induced to differentiate for 24 h before addition of gentamicin or compounds RTC#13 and #14. Myotube cultures were exposed to compounds for 72 h and then analyzed for dystrophin by Western blotting. […] We next used immunoprecipitation to increase the sensitivity of the assay (FIG. 8). […] Results were consistent in multiple experiments performed.
Cells were prepared and treated with RTCs for 3 d. Dystrophin proteins were detected by Western blot analysis using immunoprecipitation. Wild-type cells were used in the experiment to localize dystrophin protein. Gentamicin was used as a positive readthrough control. […] Results were consistent in three independent experiments.
Cells were derived from limb muscle of neonatal mdx and C57 mice, as previously described (Bertoni and Rando, 2002, Hum. Gene Ther. 13:707-718). For growth, cells were plated on dishes coated with 5 µg/ml laminin (Invitrogen) and maintained in growth medium consisting of Ham's F10 nutrient mixture (Mediatech, Inc.) supplemented with 20% fetal bovine serum, penicillin, and streptomycin. Cell differentiation was induced by maintaining the cells in low serum medium (differentiation medium) consisting of DME supplemented with 2% horse serum, penicillin, and streptomycin. Myoblasts were plated in wells of 6-well dishes and were allowed to differentiate for 24 h before adding the compounds. Media was replaced every 24 h with fresh differentiation media containing the compounds. Cells were lysed 96 h after induction of differentiation (72 h after addition of the compounds). Total protein was determined and dystrophin immunoblot analysis was performed as previously described (Sicinski et al., 1989). 250 μg of total protein from each sample was immunoprecipitated using a monoclonal antibody directed toward the rod domain (MANDYS—8; 1:40; Sigma-Aldrich) of the dystrophin protein and detected by Western blotting (Barton-Davis et al., 1999, J. Clin. Invest. 104:375-381; Bertoni and Rando, 2002).
Muscle cells were induced to differentiate to allow the formation of myotubes and synthesis of dystrophin mRNA. Compounds were added 24 hrs after induction of differentiation by direct addition into the media. The media was replaced every 24 hrs with fresh differentiation media containing the appropriate concentration of compounds. Myotubes were harvested 72 hrs later (96 hrs after induction of differentiation) and analyzed for dystrophin expression by immunoblot analysis (FIG. 14).
Cultures were analyzed for dystrophin expression by immunohistochemistry.
In the experiments shown in FIG. 21, the activity of two of the analogs of RTC#13 termed RTC#BZ6 and RTC#BZ16 was investigated in myotube cultures isolated from mdx mice. Compounds were added to the differentiation media 24 hrs after induction of differentiation and replaced every 24 hrs by changing the media with new fresh media containing the appropriate concentration of RTC#13, RTC#BZ6 or RTC#BZ16. […] No dystrophin expression was detected in cells treated with vehicle only at a final concentration of 10 μM.

[4] = cited from earlier work

N=C1NC(=O)/C(=C/c2c[nH]c(=O)[nH]c2=O)S1 [Compound 13k, (Z)-5-((2-imino-4-oxothiazolidin-5-ylidene)methyl)pyrimidine-2,4(1H,3H)-dione]
FC-ATM readthrough activity [1]: good activity
FC-ATM (Delta-FI, 30 μM) ([1]; Table 4, compounds 13 and 15, 30 μM): 5.32
FCATMs1981 ([1]; summary of positive results): +
IR-induced ATMs1981 foci formation, readthrough activity ([2]; A-T153LA cells (TGA), FIG. 13): statistically significant readthrough activity; also recorded: good activity
IRIF-ATM (%) (30 μM) ([2]; Table 4, 30 μM, IR-induced ATMs1981 nuclear foci formation): 17%
IRIF (ATMs1981) ([2]; summary of positive results): +
dystrophin expression in mdx myotube cultures [3]: levels of dystrophin expression comparable to that achieved using the parent compound RTC#13

O=C(O)c1cccc(-c2noc(-c3ccccc3F)n2)c1 [PTC124]
tolerability ([4]; phase-I clinical study in cystic fibrosis): generally well tolerated
readthrough activity compared with aminoglycosides ([4]; phase-I clinical study): more efficient readthrough activity than aminoglycosides
